From patent US5859067A, “Use of natural products and related synthetic compounds for the treatment of cardiovascular disease” (priority 1993, dated 1999) come the findings set out here.

Values joined by “and” are separate entries in the source; they are usually repeats but may differ in a detail not shown here. Identical values can stand only once. Like-named read-outs stand apart in the source and are kept apart here.

The term IC50 denotes the point on the concentration scale where inhibition reaches its midpoint. Usually LC50 stands for the concentration that kills 50% of the test population. As usually defined, the inhibition is how much of the control response was suppressed.

Experiment [1] addresses T1, human erythrocyte plasma membrane Ca^2+ -ATPase (Homo sapiens, UniProt P23634).
T1 construct: Calmodulin-depleted erythrocyte membranes were prepared by continuous filtration through a hollow fibre; tissue New South Wales Red Cross Transfusion Service, Sydney; host or cells: human packed red blood cells (calmodulin-depleted erythrocyte membranes)
Description: Ca^2+ -ATPase assay (microplate method), absence (-CaM) and presence (+CaM) of calmodulin (Table 1A). In kind it is biochemical. On the procedure:
Natural and synthetic compounds of formula (I) were tested for their ability to influence human erythrocyte plasma membrane Ca^2+ -ATPase. The enzyme Ca^2+ -ATPase in the human red blood cell plasma membrane has previously been studied and its stimulation by calmodulin and activation by lipids and proteolysis and its primary structure have been published (see Carafoli E (1991) Calcium pump of the plasma membrane, Physiological Reviews 71, 129-153.
(§1) Calmodulin-depleted erythrocyte membranes were prepared by continuous filtration through a hollow fibre, Ashahi plasma separator as described by W S Price, B D Roufogalis, P W Kuchel (1989), A simple and inexpensive method for preparing erythrocyte membranes by filtration through a hollow-filter system, Anal. Biochem., 179, 190-193. Packed cells were obtained from the New South Wales Red Cross Transfusion Service, Sydney. The whole preparation was carried out at 4° C. 1 unit of packed red cells was washed 3 times with isotonic buffer, containing 130 mM KCl, 20 mM Tris-HCl (pH 7.4), and the cells were collected by centrifugation at 4,000 RPM. The cells were haemolysed by the buffer containing 1 mM EDTA, 10 mM Tris-Hcl (pH 7.4), 0.5 mM PMSF (phenylmethyl sulfonyl fluoride). The haemolyzate mixture was passed through the hollow fibre system until the membrane appeared white, and then washed with 10 mM potassium Hepes (pH 7.4). The membranes were collected by centrifugation at 10,000 RPM for 20 min, the membranes were resuspended in storage buffer containing 130 mM KCl, 2 mM dithiothreitol, 0.5 mM MgCl2, 20 mM potassium-Hepes (pH 7.5). The membranes with protein concentration of 1.5-5.4 mg/ml were stored at -80° C. until required.
Erythrocyte membranes were incubated at 37° C. for one hour in a total volume of 60 μl of 65 mM KCl, 50 mM HEPES (pH=7.4), 5 mM MgCl2, 50 μM CaCl2, 0.1 mM EGTA and in absence and presence of calmodulin (0.3 μM). Test compounds were dissolved in dimethyl sulfoxide DMSO and 2 μl was added to the assay mixture prior the addition of ATP. The final concentration of DMSO in the assay mixture was 3%. The reaction was started by adding 2 mM ATP (pH=7.4). After 1 hour of incubation, colouring agent (180 μl) was added and incubated at 37° C. for 1/2 hrs. The phosphate liberated to the assay medium was determined spectrometrically using a microplate reader at 750 nm. The activity of the Mg^2+ -ATPase (assayed in the absence of added CaCl2) was subtracted from the total activity assayed in the presence of Ca^2+.

The subject of experiment [2] is brine shrimp (Artemia salina Leach). Description: Brine shrimp toxicity bioassay. As to conditions: Artemia salina, read-out: LC50 brine shrimp. In kind it is in vivo. The method, then: There are many applications of the assay including analysis of toxic substances, anaesthetics, morphine-like substances and cocarcinogenicity of phorbol esters.
6 (K Hostettman, ed.), Academ Press, London, 1-32. DMSO solutions of the substances to be tested were added directly to the vials containing the brine shrimp. As the concentration of DMSO that we wished to use was higher than the recommended 1% v/v testing of the toxicity of the DMSO was therefore necessary.
Brine shrimp toxicity was assayed, except for some minor modifications, according to the method of McLaughlin et al as reported in Brine Shrimp: A convenient general bioassay for active plant constituents, B N Meyer, N R Ferrigni, J E Putman, L B Jacobsen, D E Nhols and J L McLaughlin. […] J L McLaughlin. […] 6 (K Hostettman, ed.), Academ Press, London, 1-32. Ten shrimp were added transferred to each of the vials and the volume adjusted to 4.9 mL. Each dose was performed in triplicate, including the control. In quick succession, the appropriate volume of additional DMSO for each dose, required to achieve a final concentration of 2%, was added before the appropriate volume of test solution. The vials were gently mixed and the time noted. After 24 hours, the number of survivors were counted and % mortality was determined.
The LC50 values were expressed in both μM and μg/mL.

Experiment [3] concerns the target T1, human erythrocyte plasma membrane Ca^2+ -ATPase. The experiment can be described thus: Ca^2+ -ATPase assay (erythrocyte membranes; Table 1). In kind it is biochemical. The method, then: Natural and synthetic compounds of formula (I) were tested for their ability to influence human erythrocyte plasma membrane Ca^2+ -ATPase.
as §1, with “Packed” for “Calmodulin-depleted erythrocyte membranes were prepared by continuous filtration through a hollow fibre, Ashahi plasma separator as described by W S Price, B D Roufogalis, P W Kuchel (1989), A simple and inexpensive method for preparing erythrocyte membranes by filtration through a hollow-filter system, Anal. Biochem., 179, 190-193. Packed”
Erythrocyte membranes (0.071-0.098 mg/ml) were incubated at 37° C. for one hour in a total volume of 0.4 ml of 65 mM KCl, 20 mM potassium-Hepes, 5 mM MgCl2, 50 μM CaCl2, 0.1 μm calmodulin, 0.1 mM EGTA. The reaction was started by adding 2 mM ATP(pH 7.4). […] The activity of the Mg^2+ -ATPase (assayed in the absence of added CaCl2) was subtracted from the total activity assayed in the presence of Ca^2+. […] A concentrated solution of the test substances was added to the reaction medium before adding ATP.

The mark [4] stands for this setting: IC50 (+CaM), presence of calmodulin (0.3 μM).
Setting [5] is: absence of calmodulin, read-out: IC50 (-CaM).
Where [6] appears, read: presence of calmodulin (0.3 μM), read-out: IC50 (+CaM).
Where [7] appears, read: IC50 (-CaM), absence of calmodulin.
Where [8] appears, read: read-out: INHIBITION OF Ca^2+ -ATPase PERCENT (%).
Where [9] appears, read: at 100 μM, read-out: INHIBITION OF Ca^2+ -ATPase PERCENT (%).
Setting [10] is: read-out: INHIBITION OF Ca^2+ -ATPase IC50.

T1 sequence (P23634 1-1205 isoform P23634-6): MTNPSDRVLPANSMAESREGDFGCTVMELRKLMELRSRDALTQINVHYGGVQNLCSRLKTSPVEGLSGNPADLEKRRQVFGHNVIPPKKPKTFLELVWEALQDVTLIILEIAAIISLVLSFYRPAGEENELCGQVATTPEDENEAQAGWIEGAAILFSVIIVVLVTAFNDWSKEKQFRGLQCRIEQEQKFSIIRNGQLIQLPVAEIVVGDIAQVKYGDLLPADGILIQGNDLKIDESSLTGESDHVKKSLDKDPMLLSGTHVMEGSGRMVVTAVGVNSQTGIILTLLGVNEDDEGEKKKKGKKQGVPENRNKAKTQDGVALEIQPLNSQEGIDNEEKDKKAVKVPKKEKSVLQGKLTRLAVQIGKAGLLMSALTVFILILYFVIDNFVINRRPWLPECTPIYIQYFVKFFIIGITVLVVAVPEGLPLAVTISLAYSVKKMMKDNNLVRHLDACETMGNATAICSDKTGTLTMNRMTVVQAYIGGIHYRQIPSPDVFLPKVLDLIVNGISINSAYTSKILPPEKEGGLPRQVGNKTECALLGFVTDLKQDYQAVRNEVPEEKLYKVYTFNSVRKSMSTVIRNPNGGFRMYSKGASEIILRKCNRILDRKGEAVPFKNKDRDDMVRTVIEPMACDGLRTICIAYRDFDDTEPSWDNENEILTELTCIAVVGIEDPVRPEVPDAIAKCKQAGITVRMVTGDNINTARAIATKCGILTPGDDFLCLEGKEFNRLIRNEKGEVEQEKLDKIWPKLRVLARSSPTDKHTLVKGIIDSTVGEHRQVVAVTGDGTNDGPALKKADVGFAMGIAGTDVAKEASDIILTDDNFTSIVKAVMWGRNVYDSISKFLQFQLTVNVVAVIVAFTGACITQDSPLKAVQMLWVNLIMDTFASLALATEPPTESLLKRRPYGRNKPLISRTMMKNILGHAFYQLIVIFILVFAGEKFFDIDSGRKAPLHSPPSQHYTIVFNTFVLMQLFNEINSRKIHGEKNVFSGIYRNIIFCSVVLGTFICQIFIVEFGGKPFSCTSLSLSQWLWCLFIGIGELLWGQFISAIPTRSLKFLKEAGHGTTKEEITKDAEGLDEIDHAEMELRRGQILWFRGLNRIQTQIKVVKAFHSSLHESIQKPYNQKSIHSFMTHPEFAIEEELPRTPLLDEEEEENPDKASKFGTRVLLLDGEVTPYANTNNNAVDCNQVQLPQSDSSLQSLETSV
T1 sequence (P35613 140-385 partner limits assumed): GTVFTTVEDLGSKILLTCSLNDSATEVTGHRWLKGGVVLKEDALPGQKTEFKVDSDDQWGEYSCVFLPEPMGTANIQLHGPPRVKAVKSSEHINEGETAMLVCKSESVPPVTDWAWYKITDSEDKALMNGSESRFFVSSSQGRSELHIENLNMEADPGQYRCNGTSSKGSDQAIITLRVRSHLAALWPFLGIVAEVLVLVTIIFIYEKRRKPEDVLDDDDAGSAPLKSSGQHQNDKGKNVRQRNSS

Consider `CCCCCCCCCc1cc([N+](=O)[O-])cc(Br)c1O` [2-bromo-4-nitro-6-nonylphenol], for which, in experiment [1] (setting [4]), the IC50 came out at 70 µM.

For the molecule `Oc1cccc(CCCCCCCCCCc2cccc(O)c2)c1` [1,10-bis(3-hydroxyphenyl)decane], the values for the IC50 in experiment [1] (setting [5]) and in experiment [1] (setting [6]) were 30 µM and 32 µM, respectively. Further, the LC50 in experiment [2] (24 hours) was 3 µM and 0.98 µg/mL.

As to `Cc1ccc(O)c(CCCCCCCCCCc2cc(C)ccc2O)c1` [1,10-bis(2-hydroxy-5-methylphenyl)decane], the IC50 in experiment [1] (setting [5]) was 22 µM; in experiment [1] (setting [6]), 20.5 µM.

`CCCCCCCCCc1cc([N+](=O)[O-])ccc1O` [4-nitro-6-nonylphenol]: the 50% inhibitory concentration (IC50) in experiment [1] (setting [4]) turned out to be 70 µM; in experiment [1] (setting [7]) it was 80 µM.

Regarding `CCCCCCCCCc1cc(Br)ccc1O` [4-bromo-6-nonylphenol], the IC50 in experiment [1] (setting [4]) came to 55 µM; in experiment [1] (setting [7]) it was 52 µM.

For the molecule `Oc1ccc2ccccc2c1CCCCCCCCCCc1c(O)ccc2ccccc12` [1,10-bis(2-hydroxy-1-naphthyl)decane], the IC50 in experiment [1] (setting [5]) amounted to 92 µM; in experiment [1] (setting [6]) it was 90 µM. The LC50 in experiment [2] (24 hours) was > 25 µM and > 11 µg/mL.

In the case of `Oc1ccccc1CCCCCCCCc1ccccc1O` [1,8-bis(2-hydroxyphenyl)octane], the IC50 in experiment [1] (setting [5]) and in experiment [1] (setting [6]) was 24 µM each time. The LC50 in experiment [2] (24 hours) was 3 µM and 0.89 µg/mL.

`CCCCCCCCCc1ccc(O)cc1O` [4-nonylresorcinol]: the IC50 in experiment [1] (setting [5]) is 125 µM. Further, the LC50 in experiment [2] (24 hours) is 10 µM and 2.4 µg/mL.

On to 2-bromo-6-nonylresorcinol, for which the IC50 in experiment [1] (setting [5]) and in experiment [1] (setting [6]) was 400 µM each time.

In experiment [3], `Oc1ccccc1C1CCCCC1` [2-cyclohexylphenol] had a 50% inhibitory concentration (IC50) of 186 µM. In experiment [3] (setting [8]), the inhibition at 100 µM turned out to be 28%. Further, the LC50 in experiment [2] (24 hours) was > 25 µM and > 4.4 µg/mL.

For 4-bromo-6-nonylresorcinol, the IC50 in experiment [1] (setting [5]) and in experiment [1] (setting [6]) was 400 µM each time.

On to `C=C(C)C(CC=C(C)C)Cc1c(OC)cc(O)c2c1OC(c1c(O)cccc1O)CC2=O` (stereo not shown) [5,2',6'-trihydroxy-8-lavandulyl-7-methoxyflavanone], for which the IC50 in experiment [1] (setting [5]) worked out at 45.3 µM.

In the case of `Oc1ccccc1CCCCCCCCCc1ccccc1O` [1,9-bis(2-hydroxyphenyl)nonane], the IC50 in experiment [1] (setting [5]) amounted to 13.5 µM; in experiment [1] (setting [6]), 14 µM.

As to `CCCCCCCCCCc1c(Br)c(O)c(Br)c(O)c1C(=O)OCC` [ethyl 3,5-dibromo-2,4-dihydroxy-6-decylbenzoate], the inhibition at 100 µM in experiment [3] (setting [9]) worked out at 73%. Also, the IC50 in experiment [3] (setting [10]) turned out to be 69 µM. Further, the LC50 in experiment [2] (24 hours) is 780 nM and 0.37 µg/mL.

In the case of `CCCCCCCCCc1ccc(C)cc1O` [3-methyl-6-nonylphenol], the IC50 in experiment [1] (setting [4]) is 60 µM; in experiment [1] (setting [7]), 52 µM.

In the case of `Oc1ccc(CCCCCCCCCCCCCCc2ccccc2O)cc1` [1-(2-hydroxyphenyl)-14-(4-hydroxyphenyl)tetradecane], in experiment [3] (setting [9]), the inhibition at 100 µM is 60%. In experiment [3] (setting [10]), the IC50 is 81 µM. In experiment [2] (24 hours), the LC50 is 3.7 µM and 1.4 µg/mL.

`CCCCCCCCc1ccccc1O` [2-octylphenol]: the IC50 in experiment [3] stood at 32 µM. Further, the inhibition at 100 µM in experiment [3] (setting [8]) came to 100%. Further, in experiment [2] (24 h), the LC50 is 1.5 µM and 0.31 µg/mL.

On to `CCCCCCCCCCc1cc(O)cc(O)c1C(=O)OCC` [ethyl 2,4-dihydroxy-6-decylbenzoate], for which the inhibition at 100 µM in experiment [3] (setting [9]) came to 60%. The IC50 in experiment [3] (setting [10]) is 85 µM. The LC50 in experiment [2] (24 hours) was 2.3 µM and 0.75 µg/mL.

As for `CCCCCCCCCc1cc(O)cc(O)c1` [5-nonylresorcinol], the inhibition at 100 µM in experiment [3] (setting [9]) is 44%. Further, in experiment [3] (setting [10]), the IC50 was determined as 108 µM. Besides, the LC50 in experiment [2] (24 hours) was > 100 µM and > 18 µg/mL.

Turning to `CCCCCCCCCc1cc(Br)cc([N+](=O)[O-])c1O` [4-bromo-2-nitro-6-nonylphenol], in experiment [1] (setting [4]), the IC50 turned out to be 65.5 µM.

`C=C(C)C(CC=C(C)C)Cc1c(O)cc(O)c2c1OC(c1ccccc1O)CC2=O` (stereo not shown) [5,7,6'-trihydroxy-8-lavandulylflavanone]: the IC50 in experiment [1] (setting [5]) turned out to be 26.5 µM.

As for `Oc1ccc(CCCCCCCCCCc2ccccc2O)cc1` [1-(2-hydroxyphenyl)-10-(4-hydroxyphenyl)decane], in experiment [3] (at 50 μM, read-out: INHIBITION OF Ca^2+ -ATPase PERCENT (%)), the inhibition at 50 µM amounted to 100%. The IC50 in experiment [3] (setting [10]) was determined as 12 µM. Moreover, in experiment [2] (24 hours), the LC50 is 350 nM and 0.11 µg/mL.

Molecule `CCCCCCCCCc1ccc(O)cc1` [4-nonylphenol] had an IC50 in experiment [3] of 114 µM. Besides, in experiment [3] (setting [8]), the inhibition at 100 µM is 22%. In addition, the LC50 in experiment [2] (24 h) is 400 nM and 0.088 µg/mL.

In the case of `CCCCCCCCCc1cc(O)cc(O)c1C(=O)OCC` [ethyl 2,4-dihydroxy-6-nonylbenzoate], the inhibition at 100 µM in experiment [3] (setting [9]) amounted to 73%. Moreover, the IC50 in experiment [3] (setting [10]) was 62 µM. Also, the LC50 in experiment [2] (24 hours) is 2.6 µM and 0.8 µg/mL.

With `CC(C)=CCC/C(C)=C/CC/C(C)=C/Cc1c(O)cc(C)cc1O` [grifolin, 2-E,E-farnesyl-5-methyl-resorcinol], the inhibition at 100 µM in experiment [3] (setting [9]) is 100%. Besides, the IC50 in experiment [3] (setting [10]) was found to be 22.5 µM. In addition, in experiment [2] (24 hours), the LC50 was 2.3 µM and 0.75 µg/mL.

With `CCCCCCCCCc1cc(C)ccc1O` [4-methyl-6-nonylphenol], the IC50 in experiment [1] (setting [4]) is 75 µM; in experiment [1] (setting [7]) it was 80 µM.

`Oc1ccccc1CCCCCCCCCCCCCCc1ccccc1O` [1,14-bis(2-hydroxyphenyl)tetradecane]: in experiment [3] (setting [9]), the inhibition at 100 µM was found to be 84%. For the same molecule, the IC50 in experiment [3] (setting [10]) stood at 28 µM. In addition, the LC50 in experiment [2] (24 hours) was 1.9 µM and 0.72 µg/mL.

`Oc1ccc(CCCCCCCCCCCCc2ccccc2O)cc1` [1-(2-hydroxyphenyl)-12-(4-hydroxyphenyl)dodecane]: in experiment [3] (setting [9]), the inhibition at 100 µM was 99%. Besides, the IC50 in experiment [3] (setting [10]) was found to be 18.8 µM. In addition, the 50% lethal concentration (LC50) in experiment [2] (24 hours) was 54 nM and 0.019 µg/mL.
